Reference: publication PMC11771932, “Integrated in silico and in vitro exploration of the anti-VEGFR-2 activities of a semisynthetic xanthine alkaloid inhibiting breast cancer” (PLOS ONE, 2025)
pIC50: −log10 of the molar value. Read-outs that look alike come from different tables or passages of the source.

Experiments:
[1] = test system: Rat; settings: structural similar compounds of the TOPKAT report; ref NCI/NTP TR-358, NCI/NTP TR-138, NCI/NTP TR-336; cited from earlier work
[2] = test system: Rats; settings: structural similar compounds of the TOPKAT report; ref NIIRDN 6;688;82, 85ARAE 4;118;76/77, DRFUD4 2;393;77, YRTMA6 9;11;78, FMCHA2 -;C149;89, ARZNAD 30;2023;80; cited from earlier work
[3] = test system: VEGFR-2; parameters: method as in PMID 35493991; settings: read-out: VEGFR-2 inhibition IC50; cited from earlier work
[4] = target: T1, human VEGFR-2 (Homo sapiens, UniProt P35968); assay: In vitro VEGFR-2 inhibition (Human VEGFR-2 ELISA kit); assay type: biochemical
T1 construct: MCF- 7 cell line; endogenous in cells; host or cells: MCF-7
T1 sequence (P35968 20-1356): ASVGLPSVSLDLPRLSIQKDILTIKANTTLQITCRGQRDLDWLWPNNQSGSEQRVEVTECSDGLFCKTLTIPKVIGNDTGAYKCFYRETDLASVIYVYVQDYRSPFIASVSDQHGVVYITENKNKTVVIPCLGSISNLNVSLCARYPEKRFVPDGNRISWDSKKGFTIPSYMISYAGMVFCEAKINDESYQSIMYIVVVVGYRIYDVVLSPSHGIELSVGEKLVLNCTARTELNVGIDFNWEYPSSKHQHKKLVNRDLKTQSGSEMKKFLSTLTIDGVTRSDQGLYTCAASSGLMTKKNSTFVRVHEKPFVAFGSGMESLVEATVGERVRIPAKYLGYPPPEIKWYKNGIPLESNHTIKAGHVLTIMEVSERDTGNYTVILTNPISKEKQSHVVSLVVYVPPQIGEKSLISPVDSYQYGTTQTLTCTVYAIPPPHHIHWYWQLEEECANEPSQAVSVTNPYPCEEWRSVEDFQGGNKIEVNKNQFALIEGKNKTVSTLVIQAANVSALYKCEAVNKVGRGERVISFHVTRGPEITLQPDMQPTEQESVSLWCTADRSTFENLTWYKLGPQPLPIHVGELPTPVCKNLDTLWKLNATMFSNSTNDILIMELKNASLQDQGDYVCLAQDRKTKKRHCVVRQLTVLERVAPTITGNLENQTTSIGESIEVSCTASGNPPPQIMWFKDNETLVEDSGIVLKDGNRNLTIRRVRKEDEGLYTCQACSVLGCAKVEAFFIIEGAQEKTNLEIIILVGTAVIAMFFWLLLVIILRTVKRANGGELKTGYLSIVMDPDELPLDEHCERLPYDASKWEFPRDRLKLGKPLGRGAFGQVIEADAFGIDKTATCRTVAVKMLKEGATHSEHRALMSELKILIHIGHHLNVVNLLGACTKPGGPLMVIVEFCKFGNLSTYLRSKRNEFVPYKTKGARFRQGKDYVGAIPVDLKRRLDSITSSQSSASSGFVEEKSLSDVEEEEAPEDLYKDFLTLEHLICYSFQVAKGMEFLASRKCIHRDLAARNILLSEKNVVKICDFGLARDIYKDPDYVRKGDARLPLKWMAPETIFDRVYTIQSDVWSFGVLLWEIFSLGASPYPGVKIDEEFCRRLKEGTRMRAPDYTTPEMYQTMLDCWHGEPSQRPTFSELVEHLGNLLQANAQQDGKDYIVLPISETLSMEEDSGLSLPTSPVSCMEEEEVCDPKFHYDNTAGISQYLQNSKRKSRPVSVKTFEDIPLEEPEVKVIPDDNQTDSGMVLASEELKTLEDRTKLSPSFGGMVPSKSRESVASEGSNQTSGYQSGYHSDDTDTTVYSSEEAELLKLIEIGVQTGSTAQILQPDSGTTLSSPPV

[5] = test system: MCF7 cells; assay: Apoptosis assay, flow cytometry, Annexin V and PI double staining; assay type: cell-based
Experimental: The T-1-NBAB’s effect as an apoptotic agent was assessed via flow cytometry analysis, on MCF7 cells using Annexin V and PI double staining.
T-1-NBAB’s apoptotic potentials and effect on MCF7 cell cycle were accomplished by flow cytometry analysis technique.
In-vitro anticancer activity
Anticancer activities of the tested compounds against MCF7 and T47D cell lines were quantified using MTS assay kit (Promega) as described by the Manufacturer.
The selectivity index values of the tested compounds on cancer cells were calculated as described by Koch et al., with slight modifications; SI=IC50nc/IC50cc, where IC50nc: the IC50 value of the tested compound on normal cells and IC50cc: IC50 of the tested compound on cancer cell […]
In vitro EGFR kinase assay
The synthesized compound was estimated for their in vitro inhibition on human VEGFR-2 in MCF- 7 cell line; using ELISA kit. Firstly, a plate was used for the assay had been coated by an […]
2 inhibitor. Both standard and sample were added to the wells and incubated overnight at 4 ◦C, then washed. The biotinylated antibody was supplemented and further incubated for 1 h at room temperature. The unreacted, liberated antibody was then washed; followed by addition of HRP-conjugated streptavidin and incubated for 45 min at room temperature. Wells were washed and a TMB substrate solution was added and kept at room temperature for 30 min. Finally, the stop solution was added, and the intensity of the color produced was measured at 450 nm.
Concentration- inhibition response curve was established by GraphPad Prism 5.0. The IC 50 value was calculated as the concentration at which 50% of the cells could survive in comparison to […]
Flow cytometry analysis for apoptosis
Flow cytometry cell apoptosis analysis was used to investigate the apoptotic effect of the synthesized compound. […] The stained cells were measured using Epics XL-MCL™ Flow Cytometer and analyzed […]

[6] = test system: MCF7 cell line; assay: In vitro cytotoxicity, MCF7; assay type: cell-based
Experimental: (§1) The potential of T-1-NBAB as an anticancer agent has been highlighted through both in silico and in vitro studies, primarily due to its anti-VEGFR-2 properties. To further investigate T-1-NBAB’s cytotoxicity, it was tested against breast carcinoma epithelial cancer cell lines MCF7 and T47D.
(§2) The cytotoxic potential of T-1-NBAB against MCF7 and T47D cell lines was accomplished by MTT procedure.
(§3) Mammalian cell lines culture
(§4) MCF7 and T47D cell lines were cultured on DMEM media. The cultured media were supplemented with 200 mM L-glutamine, 10.0% fetal bovine serum (Lonza), and 1.0% penicillin/streptomycin. Cells were seeded into 25.0 cm tissue culture flasks and incubated at 37◦C in a 5.0% CO2 incubator for 24 h or till confluency.
(§5) The safety profiles of the tested compounds were checked on one non-cancerous cell line (vero) […]
(§6) A portion of 100.0 µl of 6×10^4 cell/ml cells was seeded into each well of a 96-well plate and then the plates were incubated at 37 °C in a humidified 5.0% CO2 incubator for 24 h. […]
(§7) The inoculated plates were incubated at the same growth conditions for another 24 h. At the end of incubation, cellular viability was assessed using MTS assay kit (Promega) according to […]
(§8) Anticancer activities of the tested compounds against MCF7 and T47D cell lines were quantified using MTS assay kit (Promega) as described by the Manufacturer. […]

[7] = test system: MCF7 cells; assay: Wound healing and migration assay; assay type: cell-based
Experimental: The wound healing assay, a simple and cost-effective procedure, can assess the mobility and repair capacity of cancerous cells. In this method, a scratch is created on a layer of cancer cells, and the initial width is recorded. The healing of the scratch was observed periodically for both untreated and treated cells. Throughout the study, images of the scratched areas from both groups were compared at the 0-hour and 48-hour time points.
Wound healing assay was accomplished for T-1-NBAB utilizing MCF7 cell lines. […]
Wound healing and migration assay
The wound healing assay allows the researcher to study cell migration and cell interactions. In […]
some cases also single cell migration can be analyzed and this assay can be imaged […]
1. Cells were seeded in 6 multi-well plates and cultured until confluent. It is important that all the cultures are confluent at the start of the experiment.
2. (yellow) pipette tip was used to make a straight scratch, simulating a wound. Often we make a scratch keeping the pipette tip under an angle of around 30 degrees to keep the scratch width limited. This allows imaging of both wound edges using the 10x objective.
The following equations are applied to calculate the healing and migration ratio Rat of migration (RM) = (wi – wf ) / t
Wi =average of intial wound width um
Wf= average of final wound width um
T = time span of the assay in hours
Percentage of wound clouser % ={ (At=0 – At=∆t ) / At=0 } 100 […]
At=∆t = wound area after n hours
Area difference % = (Ai – Af )

[8] = test system: Vero (normal epithelial) cell lines; assay: Safety assay on non-cancerous Vero cells; assay type: cell-based; settings: Chlorocebus sabaeus, read-out: IC50 against Vero
Experimental: as §1
The cytotoxic potential of T-1-NBAB against non-cancerous (Vero) cell lines was accomplished by MTT procedure.
as §3, §4, §5
A portion of 100.0 µl of 6×10^4 cell/ml cells was seeded into each well of a 96-well plate and then the plates were incubated at 37 °C in a humidified 5.0% CO2 incubator for 24 h. At the end of incubation period, the exhausted medium was replaced with 100.0 µl of different concentrations of the designated treatment (prepared in RPMI medium starting from 1.0 mM).
as §7

[9] = test system: T47D cell line; assay: In vitro cytotoxicity, T47D; assay type: cell-based
Experimental: as §1, §2, §3, §4, §5, §6, §7, §8

[10] = test system: Mouse; parameters: method as in earlier work; settings: structural similar compounds of the TOPKAT report; ref CPDB; cited from earlier work
[11] = test system: Rat; settings: cited from earlier work
[12] = structural similar compounds of the TOPKAT report, ref CPDB

CC1(C)S[C@@H]2[C@H](NC(=O)COc3ccccc3)C(=O)N2[C@H]1C(=O)O [[…]]
Rat maximum tolerated dose gavage, Actual Endpoint (-log C) [1]: 2.545 -log C

COC(=O)Nc1nc2ccccc2n1C(=O)NCCCCCC#N [CARBAMIC ACID; [1-[(5-CYANOPENTYL)CARBAMOYL]BENZIMIDAZOL-2-YL]-; METHYL ESTER]
Rat oral LD50, Actual Endpoint (-log C) [2]: 2.12 -log C

Cc1nc2ccccc2n(CC(=O)Nc2ccc(C(=O)Nc3cccc(Cl)c3)cc2)c1=O [compound V]
pIC50 [3]: 8.57

COC(=O)Nc1nc2cc(C(=O)c3ccc(F)cc3)ccc2[nH]1 [FLUBENDAZOLE]
Rat oral LD50, Actual Endpoint (-log C) [2]: 2.088 -log C

Cc1noc(NS(=O)(=O)c2ccc(N)cc2)c1C [SULFISOOXAZOLE]
Rat maximum tolerated dose gavage, Actual Endpoint (-log C) [1]: 2.825 -log C

CC(C)(Oc1ccc(CCNC(=O)c2ccc(Cl)cc2)cc1)C(=O)O [BEZAFIBRATE]
Rat oral LD50, Actual Endpoint (-log C) [2]: 1.946 -log C

NS(=O)(=O)c1cc(C(=O)O)cc(N2CCCC2)c1Oc1ccccc1 [PIRETANIDE]
Rat oral LD50, Actual Endpoint (-log C) [2]: 1.811 -log C

Cn1cnc2c1c(=O)n(CC(=O)Nc1ccc(C(=O)NCc3ccccc3)cc1)c(=O)n2C [T-1-NBAB]
pIC50 [4]: 6.94
Apoptosis Late ([5]; control 0.12): 2.88%
Apoptosis Early ([5]; control 0.72): 3.51%
Necrosis ([5]; control 2.21): 9.37%
pIC50 ([6]; Homo sapiens, breast cancer cell line MCF7, read-out: IC50 against MCF7): 4.77
Selectivity index (SI) against MCF7 ([6]; IC50 normal cells (Vero) / IC50 MCF7): 4.1
area difference ([7]; 0 h vs 48 h, control 659.8333): 112 µm²
RM (rate of migration) ([7]; 48 h, control 13.74681): 2.322 µm/h
Wound closure % ([7]; 48 h, control 65.96135): 12.16%
Scratch area at 0h ([7]; mean of five values): 917
Scratch area at 48 h ([7]; mean of five values): 805.5
Scratch width at 0h ([7]; mean of five values): 916.0155
Scratch width at 48 h ([7]; mean of five values): 804.5532
Reduction of scratch width after 48 hours ([7]; untreated control closed 65.9%): 12%
pIC50 [8]: 4.16
pIC50 ([9]; Homo sapiens, breast cancer cell line T47D, read-out: IC50 against T47D): 4.21
Selectivity index (SI) against T47D ([9]; IC50 normal cells (Vero) / IC50 T47D): 1.1

C[C@@H]1Cc2c(Cl)cc(C(=O)N[C@@H](Cc3ccccc3)C(=O)O)c(O)c2C(=O)O1 [OCHRATOXIN]
Rat maximum tolerated dose gavage, Actual Endpoint (-log C) [1]: 6.284 -log C

Cc1cccc(Nc2cc(Cl)nc(SCC(=O)NCCO)n2)c1C [4-Chloro-6-(2,3-xylidino)-2-pyrimidinylthio(N-b-hydroxyethyl) acetamide]
Carcinogenic potency TD50 mouse, Actual Endpoint (-log C) [10]: 3.915 -log C

O=[N+]([O-])c1ccc(-c2nc(N(CCO)CCO)c3ccccc3n2)s1 [4-Bis(2-hydroxyethyl)amino-2-(5-nitro-2-thienyl)quinazoline]
Carcinogenic potency TD50 rat, Actual Endpoint (-log C) [11, 12]: 5.06 -log C

C[C@@H]1Cc2c(Cl)cc(C(=O)N[C@@H](Cc3ccccc3)C(=O)O)c(O)c2C(=O)O1 [Ochratoxin A]
Carcinogenic potency TD50 mouse, Actual Endpoint (-log C) [10]: 4.799 -log C
Carcinogenic potency TD50 rat, Actual Endpoint (-log C) [11, 12]: 6.473 -log C

CC(C)n1c(/C=C/C(O)CC(O)CC(=O)O)c(-c2ccc(F)cc2)c2ccccc21 (stereo not drawn) [Fluvastatin, reference compound]
Carcinogenic potency TD50 rat, Actual Endpoint (-log C) [11]: 3.517 -log C
